Measurements reported in article PMC3340383, “Synthesis and Evaluation of a Series of 2-Substituted-5-Thiopropylpiperazine (Piperidine)-1,3,4-Oxadiazoles Derivatives as Atypical Antipsychotics” (PLoS ONE, 2012).
Where two headings read alike, the source gives them in different places.

Legend:
dopamine D2 receptor = target: T1, dopamine D2 receptor (Rattus norvegicus, UniProt P61169); assay: D2 dopaminergic binding assay ([3H]spiperone, rat striatum); conditions: read-out: Ki±SEM, D2
T1 construct: Rat striatum was homogenized in 20 volumes of ice-cold 50 mM Tris-HCl buffer; from tissue; host or cells: rat striatum
Experimental: (§1) All the new compounds were dissolved in 5% DMSO. The following specific radioligands and tissue sources were used: (a) serotonin 5-HT1A receptor, [^3H]8-OH-DPAT, rat brain cortex; (b) serotonin 5-HT2A receptor, [^3H]ketanserin, rat brain cortex; (c) serotonin 5-HT2C receptor, [^3H]mesulergine, rat brain cortex; (d) dopamine D2 receptor, [^3H]spiperone, rat striatum; (e) dopamine D3 receptor, [^3H]spiperone, rat olfactory tubercle (f) histamine H1 receptor, [^3H] pyrilamine, guinea pig cerebellum.
(§2) Total binding was determined in the absence of no-specific binding and compounds. Specific binding was determined in the presence of compounds. Non-specific binding was determined as the difference between total and specific binding.
(§3) Percentage of inhibition (%) = (total binding − specific binding)×100%/(total binding − nonspecific binding).
(§4) Ki values were calculated based on the Cheng and Prussoff equation: Ki = IC50/(1+C/Kd) where C represents the concentration of the hot ligand used and Kd its receptor dissociation constant were calculated for each labeled ligand. Mean Ki values and SEM were reported for at least three independent experiments.
Rat striatum was homogenized in 20 volumes of ice-cold 50 mM Tris-HCl buffer (pH 7.7) using an ULTRA TURAX homogeniser, and centrifuged twice for 10 min at 48,000 g with resuspension of the pellet in fresh buffer. The final pellet was resuspended in 50 mM ice-cold Tris-HCl containing 120 mM NaCl, 5 mM KCl, 2 mM CaCl2, 1 mM MgCl2, 0.1% ascorbic acid and 5 µM pargyline.
Total binding each assay tube was added 900 µL of the tissue suspension, 50 µL of 0.5 nM [^3H]spiperone (16.2 Ci/mmol; Perkin Elmer Life Sciences, Boston, MA, USA), 50 µL Tris-HCl buffer containing 120 mM NaCl, 5 mM KCl, 2 mM CaCl2, 1 mM MgCl2, 0.1% ascorbic acid and 5 µM pargyline.
Non-specific binding each assay tube was added 900 µL of the tissue suspension, 50 µL of 0.5 nM [^3H]spiperone, 50 µL of 10 µM (+)-butaclamol.
Specific binding each assay tube was added 900 µL of the tissue suspension, 50 µL of 0.5 nM [^3H]spiperone, 50 µL of new compounds or reference drug.
(§5) The incubation was followed by a rapid vacuum filtration through Whatman GF/B glass filters, and the filtrates were washed twice with 5 mL cold buffer and transferred to scintillation vials. Scintillation fluid (3.0 mL) was added and the radioactivity bound was measured using a Beckman LS 6500 liquid scintillation counter.

[1] = target: T2, serotonin 5-HT2A receptor (Rattus norvegicus, UniProt P14842); assay: 5-HT2A binding assay ([3H]ketanserin, rat brain cortex); conditions: read-out: Ki±SEM, 5HT2A
T2 construct: Rat cerebral cortex was homogenized in 20 volumes of ice-cold Tris-HCl buffer; from tissue; host or cells: rat brain (cerebral) cortex
Experimental: as §1, §2, §3, §4
Rat cerebral cortex was homogenized in 20 volumes of ice-cold Tris-HCl buffer (50 mM, pH 7.7) using an ULTRA TURAX homogeniser, and centrifuged at 32000 g for 20 min. The resulting pellet was resuspended in the same quantity of the buffer centrifuged for 20 min. The final pellet was resuspended in 50 volumes of the Tris-HCl buffer.
Total binding each assay tube was added 900 µL of the tissue suspension, 50 µL of 0.6 nM [^3H]ketanserin (60.0 Ci/mmol, Perkin Elmer Life Sciences, Boston, MA, USA), 50 µL Tris-HCl buffer.
Non-specific binding each assay tube was added 900 µL of the tissue suspension, 50 µL of 0.6 nM [^3H]ketanserin, 50 µL of 10 µM methisergide.
Specific binding each assay tube was added 900 µL of the tissue suspension, 50 µL of 0.6 nM [^3H]ketanserin, […] of new compounds or reference drug.
as §5

[2] = target: T3, serotonin 5-HT1A receptor (Rattus norvegicus, UniProt P19327); assay: 5-HT1A binding assay ([3H]8-OH-DPAT, rat brain cortex); conditions: read-out: Ki±SEM, 5HT1A
T3 construct: Rat cerebral cortex was homogenized in 20 volumes of ice-cold Tris-HCl buffer; from tissue; host or cells: rat brain (cerebral) cortex
T3 sequence (P19327 1-422): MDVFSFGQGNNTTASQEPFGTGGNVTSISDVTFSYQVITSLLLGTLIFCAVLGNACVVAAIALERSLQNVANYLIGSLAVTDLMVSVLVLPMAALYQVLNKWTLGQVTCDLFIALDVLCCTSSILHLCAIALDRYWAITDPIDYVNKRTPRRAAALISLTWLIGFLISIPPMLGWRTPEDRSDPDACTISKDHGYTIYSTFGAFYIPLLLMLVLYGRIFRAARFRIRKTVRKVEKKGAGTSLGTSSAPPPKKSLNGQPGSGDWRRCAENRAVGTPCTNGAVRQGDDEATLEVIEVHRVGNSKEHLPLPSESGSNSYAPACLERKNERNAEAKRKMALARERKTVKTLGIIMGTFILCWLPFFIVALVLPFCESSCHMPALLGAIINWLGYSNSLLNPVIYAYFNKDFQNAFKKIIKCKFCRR
Experimental: as §1, §2, §3, §4
Rat cerebral cortex was homogenized in 20 volumes of ice-cold Tris-HCl buffer (50 mM, pH 7.7) using an ULTRA TURAX homogeniser, and was then centrifuged at 32000 g for 10 min. […] The final pellet was resuspended in Tris-HCl buffer containing 10 µM Pargyline, 4 mM CaCl2 and 0.1% ascorbic acid.
Total binding each assay tube was added 900 µL of the tissue suspension, 50 µL of 0.5 nM [^3H]8-OH-DPAT (187.4 Ci/mmol, Perkin Elmer Life Sciences, Boston, MA, USA), 50 µL Tris-HCl buffer containing 10 µM Pargyline, 4 mM CaCl2 and 0.1% ascorbic acid.
Non-specific binding each assay tube was added 900 µL of the tissue suspension, 50 µL of 0.5 nM [^3H]8-OH-DPAT, 50 µL of 10 µM serotonin.
Specific binding each assay tube was added 900 µL of the tissue suspension, 50 µL of 0.5 nM [^3H]8-OH-DPAT, 50 µL of new compounds or reference drug.
as §5, with “5mL” for “5 mL”

[3] = [3H]spiperone, rat striatum, mean of three experiments, >10000 marked b: Ki not calculated, inhibition at 10 µM too low
[4] = [3H]ketanserin, rat brain cortex, mean of three experiments, >10000 marked b: Ki not calculated, inhibition at 10 µM too low
[5] = [3H]8-OH-DPAT, rat brain cortex, mean of three experiments, >10000 marked b: Ki not calculated, inhibition at 10 µM too low

T1 sequence (P61169 whole entry): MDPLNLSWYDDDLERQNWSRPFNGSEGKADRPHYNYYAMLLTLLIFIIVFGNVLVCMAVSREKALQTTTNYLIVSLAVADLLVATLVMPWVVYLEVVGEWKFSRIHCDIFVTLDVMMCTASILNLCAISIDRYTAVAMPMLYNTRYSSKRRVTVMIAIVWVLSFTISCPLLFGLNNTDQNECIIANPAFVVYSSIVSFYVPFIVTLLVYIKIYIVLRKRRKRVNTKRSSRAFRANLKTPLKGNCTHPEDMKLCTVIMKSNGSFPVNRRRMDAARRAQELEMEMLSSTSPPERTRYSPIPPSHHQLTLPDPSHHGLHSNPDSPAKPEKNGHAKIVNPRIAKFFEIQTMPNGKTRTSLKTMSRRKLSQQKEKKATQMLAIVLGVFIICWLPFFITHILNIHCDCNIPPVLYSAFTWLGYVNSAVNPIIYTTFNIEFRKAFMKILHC
T2 sequence (P14842 whole entry): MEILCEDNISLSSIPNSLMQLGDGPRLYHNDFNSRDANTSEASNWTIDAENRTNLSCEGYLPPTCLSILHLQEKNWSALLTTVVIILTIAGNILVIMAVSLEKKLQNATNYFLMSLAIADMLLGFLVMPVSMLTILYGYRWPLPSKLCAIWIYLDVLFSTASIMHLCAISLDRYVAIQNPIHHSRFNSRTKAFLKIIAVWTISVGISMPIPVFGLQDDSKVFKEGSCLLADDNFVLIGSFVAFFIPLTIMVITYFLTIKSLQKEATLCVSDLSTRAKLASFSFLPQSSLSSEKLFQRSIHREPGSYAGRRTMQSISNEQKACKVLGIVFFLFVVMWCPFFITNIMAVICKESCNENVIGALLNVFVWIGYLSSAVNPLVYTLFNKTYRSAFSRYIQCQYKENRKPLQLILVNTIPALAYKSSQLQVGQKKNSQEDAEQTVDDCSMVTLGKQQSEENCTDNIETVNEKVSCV

Ki (dopamine D2 receptor; [3]) [nM]	Ki [1, 4] [nM]	Ki [2, 5] [nM]	SMILES	melting point [°C]	Ki (dopamine D2 receptor) [nM]	Ki [1] [nM]	Ki [2] [nM]
138 ± 13.6	114 ± 12.1	346 ± 35.9	c1ccc2c(-c3nnc(SCCCN4CCN(c5nsc6ccccc56)CC4)o3)cccc2c1 [Compound 21, 2-(3-(4-(benzo[d]isothiazol-3-yl)piperazin-1-yl)propylthio)-5-(naphthalen-1-yl)-1,3,4-oxadiazole]	–	–	–	–
> 10000	> 10000	> 10000	Fc1ccc(-c2nnc(SCCCN3CCN(c4nsc5ccccc45)CC3)o2)cc1 [Compound 19, 2-(3-(4-(benzo[d]isothiazol-3-yl)piperazin-1-yl)propylthio)-5-(4-fluorophenyl)-1,3,4-oxadiazole]	–	–	–	–
487 ± 46.3	50.8 ± 5.3	> 10000	FC(F)(F)c1ccc(-c2nnc(SCCCN3CCN(c4nsc5ccccc45)CC3)o2)cc1 [Compound 17, 2-((3-(4-(benzo[d]isothiazol-3-yl)piperazin-1-yl)propyl)thio)-5-(4-(trifluoromethyl)phenyl)-1,3,4-oxadiazole]	–	–	–	–
> 10000	54.1 ± 6.9	450 ± 49.8	c1csc(-c2nnc(SCCCN3CCN(c4nsc5ccccc45)CC3)o2)c1 [Compound 23, 2-(3-(4-(benzo[d]isothiazol-3-yl)piperazin-1-yl)propylthio)-5-(thiophen-2-yl)-1,3,4-oxadiazole]	–	–	–	–
260 ± 32.1	59.2 ± 7.6	60.6 ± 8.6	Fc1ccc2c(C3CCN(CCCSc4nnc(-c5ccncc5)o4)CC3)noc2c1 [Compound 26, 2-(3-(4-(6-fluorobenzo[d]isoxazol-3-yl)piperidin-1-yl)propylthio)-5-(pyridin-4-yl)-1,3,4-oxadiazole]	–	–	–	–
125 ± 12.4	15.8 ± 1.3	14.8 ± 1.5	Fc1ccc(-c2nnc(SCCCN3CCC(c4noc5cc(F)ccc45)CC3)o2)cc1 [Compound 20, 2-(3-(4-(6-fluorobenzo[d]isoxazol-3-yl)piperidin-1-yl)propylthio)-5-(4-fluorophenyl)-1,3,4-oxadiazole]	–	–	–	–
96.7 ± 9.5	17.2 ± 1.6	> 10000	COc1ccc(-c2nnc(SCCCN3CCN(c4nsc5ccccc45)CC3)o2)cc1 [Compound 13, 2-((3-(4-(benzo[d]isothiazol-3-yl)piperazin-1-yl)propyl)thio)-5-(4-methoxyphenyl)-1,3,4-oxadiazole]	–	–	–	–
91 ± 11.2	50.3 ± 6.5	96.6 ± 10.3	Fc1ccc2c(C3CCN(CCCSc4nnc(-c5cccs5)o4)CC3)noc2c1 [Compound 24, 2-(3-(4-(6-fluorobenzo[d]isoxazol-3-yl)piperidin-1-yl)propylthio)-5-(thiophen-2-yl)-1,3,4-oxadiazole]	–	–	–	–
126 ± 13.5	27.2 ± 2.8	14.2 ± 1.3	Clc1ccc(-c2nnc(SCCCN3CCN(c4nsc5ccccc45)CC3)o2)cc1 [Compound 15, 2-((3-(4-(benzo[d]isothiazol-3-yl)piperazin-1-yl)propyl)thio)-5-(4-chlorophenyl)-1,3,4-oxadiazole]	–	–	–	–

More lines, now with the values behind:

SMILES	Ki (dopamine D2 receptor; [3]) [nM]	Ki [1, 4] [nM]	Ki [2, 5] [nM]	melting point [°C]	Ki (dopamine D2 receptor) [nM]	Ki [1] [nM]	Ki [2] [nM]
c1ccc(-c2nnc(SCCCN3CCN(c4nsc5ccccc45)CC3)o2)cc1 [Compound 11, 2-((3-(4-(benzo[d]isothiazol-3-yl)piperazin-1-yl)propyl)thio)-5-phenyl-1,3,4-oxadiazole]	–	–	–	69 to 71	2570 ± 321	61.4 ± 5.8	19 ± 2.3
FC(F)(F)c1cccc(N2CCN(CCCSc3nnc(-c4ccccc4)o3)CC2)c1 [Compound 10, 2-((3-(4-(3-(trifluoromethyl)phenyl)piperazin-1-yl)propyl)thio)-5-phenyl-1,3,4-oxadiazole]	–	–	–	68 to 69	> 10000	> 10000	> 10000
Cc1cccc(N2CCN(CCCSc3nnc(-c4ccccc4)o3)CC2)c1C [Compound 7, 2-((3-(4-(2,3-dimethylphenyl)piperazin-1-yl)propyl)thio)-5-phenyl-1,3,4-oxadiazole]	–	–	–	86 to 88	> 10000	374 ± 33	> 10000
COc1ccccc1N1CCN(CCCSc2nnc(-c3ccccc3)o2)CC1 [Compound 8, 2-((3-(4-(2-methoxyphenyl)piperazin-1-yl)propyl)thio)-5-phenyl-1,3,4-oxadiazole]	–	–	–	–	> 10000	> 10000	> 10000
Fc1ccc2c(C3CCN(CCCSc4nnc(-c5ccc(C(F)(F)F)cc5)o4)CC3)noc2c1 [Compound 18, 2-(3-(4-(6-fluorobenzo[d]isoxazol-3-yl)piperidin-1-yl)propylthio)-5-(4-(trifluoromethyl)phenyl)-1,3,4-oxadiazole]	–	–	–	122 to 124	94.5 ± 8.9	24.7 ± 2.8	51 ± 4.9
Fc1ccc2c(C3CCN(CCCSc4nnc(-c5ccccc5)o4)CC3)noc2c1 [Compound 12, 2-(3-(4-(6-fluorobenzo[d]isoxazol-3-yl)piperidin-1-yl)propylthio)-5-phenyl-1,3,4-oxadiazole]	–	–	–	106 to 107	2970 ± 381	11.3 ± 1.2	18.9 ± 1.6
Clc1cccc(N2CCN(CCCSc3nnc(-c4ccccc4)o3)CC2)c1Cl [Compound 9, 2-((3-(4-(2,3-dichlorophenyl)piperazin-1-yl)propyl)thio)-5-phenyl-1,3,4-oxadiazole]	–	–	–	82 to 84	> 10000	> 10000	> 10000
c1ccc2c(N3CCN(CCCSc4nnc(-c5ccncc5)o4)CC3)nsc2c1 [Compound 25, 2-(3-(4-(benzo[d]isothiazol-3-yl)piperazin-1-yl)propylthio)-5-(pyridin-4-yl)-1,3,4-oxadiazole]	–	–	–	93 to 94	> 10000	390 ± 36.5	> 10000
